The assay addresses T1, Recombinant full length human OGA enzyme (Homo sapiens, UniProt O60502).
T1 construct: Recombinant full length human OGA enzyme was purchased from Origene; purchased Origene
T1 sequence (O60502 1-916): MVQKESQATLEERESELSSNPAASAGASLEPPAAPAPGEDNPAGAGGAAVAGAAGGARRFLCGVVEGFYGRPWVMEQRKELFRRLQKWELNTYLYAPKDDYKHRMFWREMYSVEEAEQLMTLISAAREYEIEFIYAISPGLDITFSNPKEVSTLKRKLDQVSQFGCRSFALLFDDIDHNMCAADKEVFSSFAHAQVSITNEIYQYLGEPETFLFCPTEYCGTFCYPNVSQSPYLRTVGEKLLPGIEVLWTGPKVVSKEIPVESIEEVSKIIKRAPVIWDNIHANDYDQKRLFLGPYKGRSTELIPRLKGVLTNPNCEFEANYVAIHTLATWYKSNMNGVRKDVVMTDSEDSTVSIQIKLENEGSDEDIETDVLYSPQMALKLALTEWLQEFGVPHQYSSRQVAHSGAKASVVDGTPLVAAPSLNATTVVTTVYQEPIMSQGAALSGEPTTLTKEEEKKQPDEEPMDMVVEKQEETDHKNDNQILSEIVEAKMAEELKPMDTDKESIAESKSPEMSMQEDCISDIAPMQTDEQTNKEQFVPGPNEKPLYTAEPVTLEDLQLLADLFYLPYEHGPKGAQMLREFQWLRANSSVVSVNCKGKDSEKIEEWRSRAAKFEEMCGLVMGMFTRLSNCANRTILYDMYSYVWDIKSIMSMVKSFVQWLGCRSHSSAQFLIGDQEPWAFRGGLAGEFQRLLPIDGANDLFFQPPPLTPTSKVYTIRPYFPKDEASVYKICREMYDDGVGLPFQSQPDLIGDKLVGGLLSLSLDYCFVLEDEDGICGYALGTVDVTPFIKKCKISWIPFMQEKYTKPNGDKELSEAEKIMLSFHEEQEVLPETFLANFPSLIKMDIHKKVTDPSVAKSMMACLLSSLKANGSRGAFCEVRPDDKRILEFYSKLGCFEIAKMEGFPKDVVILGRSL
Nature of the assay: OGA enzyme inhibition biochemical assay. To be noted: 1 nM OGA, 100 μM 4-MUGlcNAc (Km), pH 6.4, 90 minutes at room temperature, 10-point dose-response from 20 μM. As to the method: N-(5-(((2S,4R)-4-([1,2,4]triazolo[4,3-a]pyrazin-3-yloxy)-2-methylpyrrolidin-1-yl)methyl)-4-fluorothiazol-2-yl)acetamide: The title compound was prepared in an analogous manner as Example 172 from 3-bromo-[1,2,4]triazolo[4,3-a]pyrazine. LCMS (ESI): [M+H] 392. ^1H NMR (600 MHz, CHLOROFORM-d) δ 10.75 (br s, 1H), 9.04 (s, 1H), 9.03 (s, 1H), 7.24 (s, 1H), 4.99-5.06 (m, 1H), 4.01 (d, J=14.49 Hz, 1H), 3.64 (d, J=14.67 Hz, 1H), 3.40 (d, J=11.55 Hz, 1H), 2.75 (dd, J=5.78, 11.46 Hz, 1H), 2.61-2.72 (m, 2H), 2.32 (s, 4H), 1.84-1.92 (m, 1H), 1.30 (d, J=5.87 Hz, 4H). ^19F NMR (565 MHz, CHLOROFORM-d) 6-115.92 (br s, 1F). OGA Enzyme Inhibition Biochemical Assay
Recombinant full length human OGA enzyme was purchased from Origene. 4-MUGlCNAc substrate was purchased from Sigma. All other reagents were purchased from Sigma or Fisher. Assay buffer consists of the McIlvaine buffer system, pH 6.4 (0.2M Na2HPO4 mixed with 0.1M citric acid) and 0.01% BSA. Reactions consist of 1 nM OGA, 100 μM 4-MUGlcNAc (Km), and compound in a final volume of 10 μl. Reactions were incubated for 90 minutes at room temperature and quenched with 40 μl of 3M glycine, pH 10 and read on a Perkin Elmer Envision plate reader (Ex: 355 nm/Em: 460 nm). Compounds were tested with a 10-point dose-response starting from 20 μM with a 4-fold dilution. Data, as presented in Table 1 below, was fit using GraphPad Prism using a 4-parameter fit with variable slope.
Take `CC(=O)Nc1nc(F)c(CN2C[C@H](Oc3ncnc4occc34)C[C@@H]2C)s1` [Example 74, N-(4-fluoro-5-(((2S,4R)-4-(furo[2,3-d]pyrimidin-4-yloxy)-2-methylpyrrolidin-1-yl)methyl)thiazol-2-yl)acetamide]: the concentration for half-maximal inhibition (IC50) was under 1 nM. Then `CC(=O)Nc1ncc(CN2C[C@H](Oc3ccc4cc(C(N)=O)ccc4n3)C[C@@H]2C)s1` [Example 2, 2-(((3R,5S)-1-((2-acetamidothiazol-5-yl)methyl)-5-methylpyrrolidin-3-yl)oxy)quinoline-6-carboxamide], with under 1 nM; and `CC(=O)Nc1nc(F)c(CN2C[C@H](Oc3nccc4nn(C)cc34)C[C@@H]2C)s1` [Example 136, N-(4-fluoro-5-(((2S,4R)-2-methyl-4-((2-methyl-2H-pyrazolo[4,3-c]pyridin-4-yl)oxy)pyrrolidin-1-yl)methyl)thiazol-2-yl)acetamide], with under 1 nM.

Consider `CC(=O)Nc1nc(F)c(CN2C[C@H](Oc3ccc4occc4n3)C[C@@H]2C)s1` [Example 66, N-(4-fluoro-5-(((2S,4R)-4-(furo[3,2-b]pyridin-5-yloxy)-2-methylpyrrolidin-1-yl)methyl)thiazol-2-yl)acetamide], for which the IC50 was under 1 nM. Then `CC(=O)Nc1nc(F)c(CN2C[C@H](Oc3ncc4ncn(C)c4n3)C[C@@H]2C)s1` [Example 113, N-(4-fluoro-5-(((2S,4R)-2-methyl-4-((9-methyl-9H-purin-2-yl)oxy)pyrrolidin-1-yl)methyl)thiazol-2-yl)acetamide], with under 1 nM; and `CC(=O)Nc1ncc(CN2C[C@H](Oc3ccc4occc4n3)C[C@@H]2C)s1` [Example 65, N-(5-(((2S,4R)-4-(furo[3,2-b]pyridin-5-yloxy)-2-methylpyrrolidin-1-yl)methyl)thiazol-2-yl)acetamide], with under 1 nM. In the case of `CC(=O)Nc1ncc(CN2C[C@H](Oc3ccnc4ccccc34)C[C@@H]2C)s1` [Example 19, N-(5-(((2S,4R)-2-methyl-4-(quinolin-4-yloxy)pyrrolidin-1-yl)methyl)thiazol-2-yl)acetamide] it was 1.3 nM.

For `CC(=O)Nc1nc(F)c(CN2C[C@H](Oc3ccc4ncnn4c3)C[C@@H]2C)s1` [Example 172, N-(5-(((2S,4R)-4-([1,2,4]triazolo[1,5-a]pyridin-6-yloxy)-2-methylpyrrolidin-1-yl)methyl)-4-fluorothiazol-2-yl)acetamide], the IC50 is under 1 nM. In the case of `CC(=O)Nc1nc(F)c(CN2C[C@H](Oc3noc4cc(F)ccc34)C[C@@H]2C)s1` [Example 126, N-(4-fluoro-5-(((2S,4R)-4-((6-fluorobenzo[d]isoxazol-3-yl)oxy)-2-methylpyrrolidin-1-yl)methyl)thiazol-2-yl)acetamide] it was 3.1 nM; in that of `CC(=O)Nc1nc(F)c(CN2C[C@H](Oc3ccc4c(cnn4C(F)F)n3)C[C@@H]2C)s1` [Example 153, N-(5-(((2S,4R)-4-((1-(difluoromethyl)-1H-pyrazolo[4,3-b]pyridin-5-yl)oxy)-2-methylpyrrolidin-1-yl)methyl)-4-fluorothiazol-2-yl)acetamide], under 1 nM.

In the case of `CC(=O)Nc1ncc(CN2C[C@H](Oc3nc4ccccc4cc3C#N)C[C@@H]2C)s1` [Example 37, N-(5-(((2S,4R)-4-((3-cyanoquinolin-2-yl)oxy)-2-methylpyrrolidin-1-yl)methyl)thiazol-2-yl)acetamide], the IC50 was 16 nM.

Regarding `CC(=O)Nc1nc(F)c(CN2C[C@H](Oc3ccc4ccccc4n3)C[C@@H]2C)s1` [Example 78, N-(4-fluoro-5-(((2S,4R)-2-methyl-4-(quinolin-2-yloxy)pyrrolidin-1-yl)methyl)thiazol-2-yl)acetamide], the IC50 was under 1 nM.

For `CC(=O)Nc1ncc(CN2C[C@H](Oc3ccnc4nn(C)cc34)C[C@@H]2C)s1` [Example 85, N-(5-(((2S,4R)-2-methyl-4-((2-methyl-2H-pyrazolo[3,4-b]pyridin-4-yl)oxy)pyrrolidin-1-yl)methyl)thiazol-2-yl)acetamide], the IC50 was under 1 nM. As for `CC(=O)Nc1ncc(CN2C[C@H](Oc3cc(C)nc4ccccc34)C[C@@H]2C)s1` [Example 13, N-(5-(((2S,4R)-2-methyl-4-((2-methylquinolin-4-yl)oxy)pyrrolidin-1-yl)methyl)thiazol-2-yl)acetamide], the IC50 is under 1 nM.

Take `CC(=O)Nc1nc(F)c(CN2C[C@H](Oc3ncnn4cccc34)C[C@@H]2C)s1` [Example 106, N-(4-fluoro-5-(((2S,4R)-2-methyl-4-(pyrrolo[2,1-f][1,2,4]triazin-4-yloxy)pyrrolidin-1-yl)methyl)thiazol-2-yl)acetamide]: the IC50 was under 1 nM.

Take `CC(=O)Nc1ncc(CN2C[C@H](Oc3cccc4cn(C)nc34)C[C@@H]2C)s1` [Example 159, N-(5-(((2S,4R)-2-methyl-4-((2-methyl-2H-indazol-7-yl)oxy)pyrrolidin-1-yl)methyl)thiazol-2-yl)acetamide]: the IC50 was under 1 nM. On to `CC(=O)Nc1nc(F)c(CN2C[C@H](Oc3cc4cn(C)nc4cn3)C[C@@H]2C)s1` [Example 89, N-(4-fluoro-5-(((2S,4R)-2-methyl-4-((2-methyl-2H-pyrazolo[3,4-c]pyridin-5-yl)oxy)pyrrolidin-1-yl)methyl)thiazol-2-yl)acetamide], for which the IC50 is under 1 nM. Regarding `CC(=O)Nc1nc(F)c(CN2C[C@H](Oc3ncnc4ncccc34)C[C@@H]2C)s1` [Example 119, N-(4-fluoro-5-(((2S,4R)-2-methyl-4-(pyrido[2,3-d]pyrimidin-4-yloxy)pyrrolidin-1-yl)methyl)thiazol-2-yl)acetamide], the IC50 is 1.1 nM.

As for `CC(=O)Nc1ncc(CN2C[C@H](Oc3nccn4ccnc34)C[C@@H]2C)s1` [Example 95, N-(5-(((2S,4R)-4-(imidazo[1,2-a]pyrazin-8-yloxy)-2-methylpyrrolidin-1-yl)methyl)thiazol-2-yl)acetamide], the IC50 is 5.3 nM. In the case of `CC(=O)Nc1ncc(CN2C[C@H](Oc3nccc4cc(F)ccc34)C[C@@H]2C)s1` [Example 27, N-(5-(((2S,4R)-4-((6-fluoroisoquinolin-1-yl)oxy)-2-methylpyrrolidin-1-yl)methyl)thiazol-2-yl)acetamide] it was 4 nM; in that of `COc1ccc2ccc(O[C@@H]3C[C@H](C)N(Cc4sc(NC(C)=O)nc4F)C3)nc2c1` [Example 80, N-(4-fluoro-5-(((2S,4R)-4-((7-methoxyquinolin-2-yl)oxy)-2-methylpyrrolidin-1-yl)methyl)thiazol-2-yl)acetamide], under 1 nM. Then `CC(=O)Nc1ncc(CN2C[C@H](Oc3nccc4occc34)C[C@@H]2C)s1` [Example 69, N-(5-(((2S,4R)-4-(furo[3,2-c]pyridin-4-yloxy)-2-methylpyrrolidin-1-yl)methyl)thiazol-2-yl)acetamide], with 2.7 nM; and `CC(=O)Nc1nc(F)c(CN2C[C@H](Oc3nn4ccnc4s3)C[C@@H]2C)s1` [Example 111, N-(4-fluoro-5-(((2S,4R)-4-(imidazo[2,1-b][1,3,4]thiadiazol-2-yloxy)-2-methylpyrrolidin-1-yl)methyl)thiazol-2-yl)acetamide], with under 1 nM. Then `CC(=O)Nc1ncc(CN2C[C@H](Oc3nccc4ccc(C)cc34)C[C@@H]2C)s1` [Example 30, N-(5-(((2S,4R)-2-methyl-4-((7-methylisoquinolin-1-yl)oxy)pyrrolidin-1-yl)methyl)thiazol-2-yl)acetamide], with 7.9 nM.

These data come from US12522595B2, “Bicyclic ether O-glycoprotein-2-acetamido-2-deoxy-3-D-glucopyranosidase inhibitors” (BIOGEN MA INC., priority 2019, dated 2026).
